US9682060B2, “Small molecules that induce intrinsic pathway apoptosis” (The Board of Trustees of the University of Illinois, priority 2015, dated 2017)
Entries after “also recorded” stand apart in the source; their conditions may differ.

Assays:
MCF10A = assay: Raptinal toxicity in various cell lines, 24 hour IC50; format: cell-based; settings: MCF-10A; MCF10A (Human Breast Tissue); 24 hour incubation; mean ± SD
HL-60 VCR = assay: as above; format: cell-based; settings: HL60/VCR; HL-60 VCR (Human Leukemia Vincristine Resistant); 24 hour incubation; mean ± SD
Protocol: (§1) MTS Assay for Suspension Cells.
(§2) Serial dilutions of compound in 100% DMSO were added in triplicate (2 μL to each well) to empty wells of a 96-well plate. Suspension cells (HL-60, U-937, SKW 6.4, Jurkat W T, Jurkat CASP8^−/−, Jurkat FADD^−/−, Jurkat Bcl-2) cells in RPMI 1640 media were added to 96-well plates (198 μL containing 4×10^4 cells) and the cells incubated for 24 hours.

[1] = tested on: various cancer and non-cancerous cell lines; assay: 24 hour IC50 across various cancer and non-cancerous cell lines; format: cell-based; settings: various cancer and non-cancerous cell lines (Table 1, FIG. 4D)
Protocol: as §1, §2
Sulforhodamine B Assay for Adherent Cells.
Serial dilutions of compound in 100% DMSO were added in triplicate (2 μL to each well) to empty wells of a 96-well plate. Adherent cells (3T3, Hs888Lu, MCF-7, HeLa, WT-MEF, 4T1, B16-F10, SK-MEL-5, MIA PaCa2, BT-549, MDA-MB-436, 143B, HOS, H460, H1993) cells were added to each well (5×10^3 cells in 198 μL of RPMI 1640, DMEM or EMEM media). The plates were incubated for 24 hours. The media was removed from the plate and ice-cold trichloroacetic acid (100 μL of 10% w/v trichloroacetic acid) was added to the plates which were then incubated at 4° C. overnight to fix the cells. […] The bound dye was released by the addition of unbuffered Tris-base (200 μL of 10 mM solution) and after a 30 min incubation at room temperature the absorbance at 510 nm was measured (Molecular Devices SpectraMax Plus 384 plate reader). The mean IC50 values and standard deviations were determined from three independent experiments.

SKW 6.4 cells = assay: Immunoblotting of caspase activation; format: cell-based, Human; settings: 10 μM
Protocol: U-937 cells (3×10^6 cells in 2 mL RPMI) or SKW 6.4 cells (5×10^6 cells in 2 mL RPMI) were treated with compound (1% final DMSO v/v) for the appropriate period of time. After centrifugation and washing with PBS, cells were lysed with RIPA lysis buffer containing protease cocktail inhibitor III (Calbiochem) and cell debris removed by centrifugation (16000×g 5 min). The lysate concentrations were normalized after determination of protein concentration by the Bradford assay and whole cell lysate (40-60 μg) was resolved by 4-20% gradient SDS-PAGE gel electrophoresis at 120 V for 70 min after which proteins were transferred onto PVDF membranes (60 V for 2 hours) and blocked in 5% BSA or fat-free milk in TBST (as per primary antibody manufacturer's instructions) overnight at 4° C. The membranes were blotted for molecules of interest with primary antibody (1:1000 in 5% BSA or milk in TBST) overnight at 4° C. The bound primary antibodies were detected using appropriate secondary HRP conjugated antibodies (1:5000 in TBST) for 1 hour at room temperature and visualized by ECL autoradiography or with an Image Quant LAS 4010. The membranes were stripped in acidic methanol, blocked and re-probed as necessary.

[2] = format: in vivo, C57BL/6 mice; settings: mice; single-dose intravenous 15-60 mg/kg
Protocol: Pharmacokinetics and Toxicity Profiling in Mice.
All animal studies were performed with prior approval by the University of Illinois at Urbana-Champaign IACUC committee. Eight week old female C57BL/6 mice were used for all pharmacokinetic and toxicity experiments. […]. For toxicity assessment, Raptinal was administered intravenously as a single-dose injection across a dose range of 15-60 mg/kg, and mice were sacrificed 7 days post-injection for evidence of hematologic toxicity (n=3 mice/group).

B16-F10 melanoma = assay: Syngeneic subcutaneous tumor model; format: in vivo, C57BL/6 mice; settings: 20 mg/kg IP once daily for 3 days
Protocol: All animal studies were performed with prior approval by the University of Illinois at Urbana-Champaign IACUC committee. […]. Seven days (for B16-F10) and six days (for 4T1) after inoculation, the mice were randomized based upon tumor size with 7 mice per group. Vehicle or compound was administered intraperitoneally as a corn oil DMSO suspension (300 μL of 10% DMSO in trans fat-free corn oil, 20 mg/kg) once daily for 3 consecutive days for B16-F10 and 4 consecutive days for 4T1 models. Tumor measurements were performed every other day using a caliper and tumor volume was calculated using the equation (0.5×l×w^2).

[3] = tested on: caspase-3/-7 activity in MIA PaCa-2 cells; assay: Whole cell caspase activity assay (Ac-DEVD-AFC); format: cell-based, Human; settings: transfected MIA PaCa-2 cells; 10 μM for 1 hour
Protocol: Whole Cell Caspase Activity Assay.
The caspase activity assay was conducted in 96-well plates using transfected cells (see Example 3 for transfection protocol). Transfected cells were treated with 10 μM Raptinal for 1 hour, which corresponded to 40% of maximal caspase-3/-7 activity achievable by Raptinal. After treatment, the media was replaced with PBS (150 μL) and 50 μL of freshly made 4× caspase assay buffer (containing 20 μM Ac-DEVD-AFC) (Stennicke and Salvesen, 1997). After one hour incubation at room temperature (^˜22° C.) in the dark, the fluorescence of cleaved AFC was read on a spectrofluorometer (Ex: 380 nm, Em: 500 nm). The results were expressed as the relative caspase-3/-7 activity and normalized by designating the vehicle (0.5% DMSO) as 0% activity and Raptinal treatment as 100% activity.

Jurkat cells = assay: AV/PI assay in Jurkat cell lines (WT, caspase-8 deletion, FADD deletion, Bcl-2 upregulation); format: cell-based, Human; settings: 10 μM, 2 hours
in vitro = settings: human, U-937 cells

Question: Which IC50 (MCF10A) does the source give for `O=CC1(C2(C=O)c3ccccc3-c3ccccc32)c2ccccc2-c2ccccc21` [Raptinal, [9,9′]bifluorenyl-9,9′-dicarbaldehyde] here?
Answer: 3000 ± 200 nM

Question: What about the IC50 (HL-60 VCR) of the same molecule?
Answer: 1600 ± 500 nM

Question: What about the IC50 [1] of the same molecule?
Answer: 700 to 3400 nM

Question: What about the “time of activation of initiator caspase-9” value (SKW 6.4 cells) of the same molecule?
Answer: 20 min

Question: What about the “time to complete cleavage of procaspase-9, procaspase-8 and procaspase-3” value (SKW 6.4 cells) of the same molecule?
Answer: ≤ 45 min

Question: What about the “procaspase-3 activation (immunoblot)” value (SKW 6.4 cells; one hour of exposure) of the same molecule?
Answer: the only agent capable of inducing procaspase-3 activation

Question: What about the tolerability [2] of the same molecule?
Answer: well tolerated

Question: What about the “retardation of tumor mass relative to controls” value (B16-F10 melanoma) of the same molecule?
Answer: 60%

Question: What about the “retardation of tumor volume relative to controls” value (B16-F10 melanoma) of the same molecule?
Answer: 60%

Question: And the “caspase-3/-7 activity as share of maximal activity achievable by Raptinal” value [3]?
Answer: 40%

Question: What about the “sensitivity of Jurkat Bcl-2 overexpressing versus wild type cells” value (Jurkat cells) of the same molecule?
Answer: less susceptible; also recorded: partial resistance

Question: And the “sensitivity of Jurkat caspase-8−/− versus wild type cells” value (Jurkat cells)?
Answer: equally susceptible; also recorded: equally as sensitive

Question: And the cytotoxicity at 2 h, 10 µM (in vitro)?
Answer: ~80%
